Results reported in PMC7346179, “Fe Porphyrin-Based SOD Mimic and Redox-Active Compound, (OH)FeTnHex-2-PyP^4+, in a Rodent Ischemic Stroke (MCAO) Model: Efficacy and Pharmacokinetics as Compared to Its Mn Analogue, (H2O)MnTnHex-2-PyP^5+” (Antioxidants, 2020).
Values joined by “and” are separate entries in the source; they are usually repeats but may differ in a detail not shown here. Identical values can stand only once.

Experiments:
[1] = 2-h PK study in rats that underwent MCAO; assay type: in vivo; conditions: rats after 90-min MCAO, 0.225 mg/kg IV + 0.225 mg/kg SC, 2 h after reperfusion
Experimental: Samples were prepared as described in [10] with modifications to accommodate the small tissue sizes and enhance the detection sensitivity. Quantitative liquid chromatography electrospray-ionization tandem mass spectrometry (LCMS/MS) analysis was performed on a Shimadzu 20A series HPLC (LC)-Applied Biosystems/MDS Sciex API 3200 QTrap or API 4000 QTrap tandem-mass spectrometer (MS/MS) as described earlier. The use of heptafluorobutyric acid (HFBA) mobile phase modifier as an ion-pairing agent increases the overall lipophilicity and volatility, which increases the retention and ionization efficiency of the analytes, affording an abundance of HFBA-associated ions. […] (OH)FeTnBuOE-2-PyP^4+ was prepared as described for other Fe(III) N-alkylpyridylporphyrins and analogous (H2O)MnTnBuOE-2-PyP^5+ [13, 16]. The solvents employed were: A = 95:5 H2O:MeCN (0.1% HFBA); B = MeCN (0.1% HFBA). […] With the chosen solvent system, all four atropoisomers collapsed into a single peak, enhancing the sensitivity of the method to as low as 0.5 nM (nanomoles per L of tissue homogenate). Analyses were performed using a Phenomenex Luna C18 guard cartridge (ID × L, 2 × 4 mm) only. […] Their structures are also shown. […] The response was calculated as the ratio between the standard peak area and the internal standard peak area. Another possible cause for the failure of therapeutics in stroke may be their slow accumulation in the brain, i.e., not being there in time to prevent the burst of reactive species and rapid activation of transcription factors, which perpetuate oxidative stress. We therefore conducted short-term 2-h PK to evaluate how fast post-MCAO our drug gets into the brain. Three rats per compound were subjected to 90 min of transient right MCAO as reported. The first dose of 0.225 mg/kg was given IV via the […] at 5 min after ischemia/reperfusion. The second dose of 0.225 mg/kg was given SC at 30 min after reperfusion. Blood was collected at 2 h and plasma harvested. Rats were perfused with heparin saline (2000 IU/500 mL) until no reddish fluid came out from the right atrium. Then, the liver, and left and right brain were collected and placed on dry ice and stored at -20 °C. Plasma, liver, and brain were analyzed by LCMS/MS.

[2] = 7-day PK study in healthy rats; assay type: in vivo; conditions: healthy rats
Experimental: Samples were prepared as described in [10] with modifications to accommodate the small tissue sizes and enhance the detection sensitivity. Quantitative liquid chromatography electrospray-ionization tandem mass spectrometry (LCMS/MS) analysis was performed on a Shimadzu 20A series HPLC (LC)-Applied Biosystems/MDS Sciex API 3200 QTrap or API 4000 QTrap tandem-mass spectrometer (MS/MS) as described earlier. The use of heptafluorobutyric acid (HFBA) mobile phase modifier as an ion-pairing agent increases the overall lipophilicity and volatility, which increases the retention and ionization efficiency of the analytes, affording an abundance of HFBA-associated ions. […] (OH)FeTnBuOE-2-PyP^4+ was prepared as described for other Fe(III) N-alkylpyridylporphyrins and analogous (H2O)MnTnBuOE-2-PyP^5+ [13, 16]. The solvents employed were: A = 95:5 H2O:MeCN (0.1% HFBA); B = MeCN (0.1% HFBA). […] With the chosen solvent system, all four atropoisomers collapsed into a single peak, enhancing the sensitivity of the method to as low as 0.5 nM (nanomoles per L of tissue homogenate). Analyses were performed using a Phenomenex Luna C18 guard cartridge (ID × L, 2 × 4 mm) only. […] Their structures are also shown. […] The response was calculated as the ratio between the standard peak area and the internal standard peak area. We conducted a 7-day rat PK study under conditions identical to those that afforded the therapeutic efficacy of MnTnHex-2-PyP^5+ in an earlier study. […] Afterwards, blood/plasma samples were collected before injection and at 2 h after 24 h-injections (every second injection). Liver and brains were taken for analysis 12 h after the last injection. Three rats were used per compound. After the single (first) SC injection, we obtained a prototypical PK profile observed in the case of all Mn(III) ortho […] In contrast, although similarly absorbed after SC injection, the […] Our understanding is that the “elimination” process is actually a fast distribution/retention into/by the liver, kidney, and spleen, a multi-compartmental process responsible for early decay of the plasma concentration, observed for all Mn porphyrin analogs investigated.

[3] = mouse, in vivo; cited from earlier work
[4] = cited from earlier work
rat MCAO stroke model = test: 7-day rat MCAO efficacy study; assay type: in vivo, rats; conditions: 0.225 mg/kg twice per day 7 days
Experimental: The 7-day rat MCAO study was done as described in [9]. The 250–275 g Wistar rats were used as another species is a requirement for preclinical stroke research. The duration of the right MCAO was 90 min. […] The first dose was given IV slowly via the […] at 5 min after ischemia/reperfusion. The following doses were given SC. At day 7 post-injury, a person blinded to the treatment groups assessed the neurological deficit and then brains were harvested for infarct volume measurements.

[5] = system: rat middle cerebral artery occlusion (MCAO) stroke model; conditions: cited from earlier work
mice [6] = conditions: mice, 5 mg/kg IP injection; cited from earlier work
mice [7] = conditions: mouse, in vivo, ip, 10 mg/kg; cited from earlier work
[8] = in vivo; cited from earlier work
[9] = SC 0.225 mg/kg BID 7 days, 12 h after last injection
[10] = SC 0.225 mg/kg BID 7 days, WinNonlin simulation

In the case of `CCCCCC[n+]1ccccc1-c1c2nc(c(-c3cccc[n+]3CCCCCC)c3ccc([n-]3)c(-c3cccc[n+]3CCCCCC)c3nc(c(-c4cccc[n+]4CCCCCC)c4ccc1[n-]4)C=C3)C=C2.[Mn+3]` [MnHex, Mn(III) meso-tetrakis(N-n-hexylpyridinium-2-yl)porphyrin], the “level in injured (right) brain hemisphere” value [1] is reported as ~ 35 nM, the “brain level at end of 7-day treatment” value ([2]; SC 0.225 mg/kg BID 7 days) is reported as 25 nM and the “brain concentration at end of 7-day treatment” value [2, 9] is reported as 25 nM. The “end-of-treatment 7-day liver tissue level” value [2, 9] was 21 µM, the “average plasma concentration (Caver)” value [2, 10] was 76 nM and the “plasma AUC” value [2, 10] was 11.5 µM·h. For the same molecule, the Cmax ([2]; SC 0.225 mg/kg BID 7 days, WinNonlin simulation, read-out: Cmax at steady state, plasma) was 220 nM, the “elimination from plasma after single (first) SC injection” value ([2]; SC 0.225 mg/kg, first 12 h) was “eliminated from plasma within 12 h” and the plasma half-life ([2]; SC 0.225 mg/kg, estimated from simulation, 0.225 mg/kg) was 1.4 h and ~ 1.4 h. For the same molecule, the “accumulation in mitochondria relative to cytosol” value [3] was 3.6 fold, the “log kcat(O2^•−), log of rate constant for catalysis of O2^•− dismutation” value [4] was 7.48 and the “p, cortex infarct volume vs vehicle” value (rat MCAO stroke model) was 0.046. The “p, neuroscore vs vehicle” value (rat MCAO stroke model) was 0.016, the “p, subcortex infarct volume vs vehicle” value (rat MCAO stroke model) was 0.049 and the “p, total infarct volume vs vehicle” value (rat MCAO stroke model) was 0.029. The “neurological deficit (neuroscore and infarct volume)” value (rat MCAO stroke model; first dose IV, then SC) was “significantly improved”, the “infarct size in earlier 7-day MCAO study” value [5] was “significantly reduced the infarct size” and the “neurologic outcome, infarct size and inflammation” value ([5]; rat MCAO stroke model and subarachnoid hemorrhage) was “improved the neurologic outcome and decreased infarct size and inflammation”. The “brain level in earlier 7-day MCAO study” value ([5]; rat, in vivo) was ~ 30 nM, the “toxicity / death of mice” value (mice [6]) was “mice died” and the blood pressure drop (mice [7]) was “does cause a blood pressure drop”. The “blood–brain barrier crossing” value [8] was “crosses the BBB”.
